The text below walks through data of patent US8207175B2, “Inhibitor compounds” (University Court of the University of Dundee, priority 2005, dated 2012).

Where two headings read alike, the source gives them in different places. Where only a bound is given, the exact number is not on record here.

The target of assay [1] is T1, AfChiB1 (Aspergillus fumigatus, UniProt Q873X9). The assay is described as follows: biochemical. It is filed as biochemical. The source says: AfChiB1 was expressed, purified and inhibition studies performed as previously described [F. V. Rao, D. R. Houston, R. G. Boot, J. M. F. G. Aerts, M. Hodkinson, D. J. Adams, K. Shiomi, S. Omura, and D. M. F. van Aalten, Specificity and affinity of natural product cyclopentapeptide inhibitors against Aspergillus fumigatus, human and bacterial chitinases, Chemistry & Biology, 12, 65-76 (2005)].
Briefly, AfChiB1 was overexpressed as a GST-fusion protein in E. coli and purified using a combination of affinity and size-exclusion chromatography.
AfChiB1 inhibition was studied using the fluorogenic substrate 4-methylumbelliferyl-β-D-N,N′-diacetylchitobiose (4MU-GlcNAc2; Sigima). Briefly, in a final volume of 50 μl, 2 nM of enzyme was incubated with 20 μM substrate in McIlvain buffer (100 mM citric acid, 200 mM sodium phosphate, pH 5.5) containing 0.1 mg/ml BSA, for 10 min at 37° C. in the presence of different concentration of inhibitors. After the addition of 25 μl of 3 M glycine-NaOH, pH 10.3, the fluorescence of the liberated 4-methylumbelliferone (4MU) was quantified using a Flx 800 microtitrepiate fluorescence reader (Bio-Tek Instruments Inc.), with excitation and emission wavelengths of 360 nm and 460 nm, respectively, using 40 nm slits. Experiments were performed in triplicate. […]
The mode of action was determined by plotting the data as Lineweaver-Burk plots, and by fitting all data to the standard competitive inhibition equation with the GraFit software [R. J. Leatherbarrow, GraFit Version 5, Erithacus Software Ltd., Horley, U.K., (2001)].
The compounds according to an embodiment of the present invention were prepared according to the following methods, and further evaluated as inhibitors against AfChiB using the fluorescence-based assay described herein using 4methylumbelliferyl β-D-N,N-deacetyl-chitobioside as substrate. The assay results are shown in the accompanying tables 3-6.

The target of assay [2] is cellulase from Aspergillus niger. The assay is described as follows: Cellulase assay, 4-methylumbelliferyl-β-D-cellobioside. It is filed as biochemical. Particulars: 5 nM enzyme, 20 μM substrate, 30 min at 37° C. How it is done: (§1) Additionally, for comparison, inhibition studies were performed on celluase from Aspergillus niger, phosphodiesterase 4A and lysozyme.
Commercially available […] from Aspergillus niger (Sigma: C-1184) was assayed, using the fluorogenic substrate 4-methylumbelliferyl-β-D-cellobioside (Sigma M-6018). In a final volume of 50 μl, 5 nM of enzyme was incubated with 20 μM substrate in McIlvain buffer containing 0.1 mg/ml BSA, for 30 min at 37° C. in the presence of different concentration of inhibitors. After the addition of 25 μl of 3 M glycine-NaOH, pH 10.3, the fluorescence of the liberated 4-methylumbelliferone (4MU) was quantified using an Flx 800 microtitreplate fluorescence reader (Bio-Tek Instruments Inc.), with excitation and emission wavelengths of 360 nm and […], respectively, using 40 nm slits. Experiments were performed in triplicate. Production of 4MU was linear with time for the incubation period used, and less than 10% of available substrate was hydrolyzed.

The target in assay [3] is T2, Chicken egg white lysozyme (Gallus gallus, UniProt P00698).
T2 construct: Chicken egg white lysozyme and its substrate; purchased Molecular probes EnzCheck Lysozyme kit; host or cells: chicken egg white
As to the kind of experiment: Lysozyme assay, EnzCheck Lysozyme kit. It is filed as biochemical. Particulars: 500 μM inhibitor. How it is done: as §1
Lysozyme was assayed using the EnzCheck Lysozyme kit from Molecular probes as described by the manufacturer. Chicken egg white lysozyme and its substrate, fluorescein labeled Micrococcus lysodeikyius cell wall (DQ Lysozyme substrate) were used to determine compound inhibition. Briefly, 6.25 units of lysozyme were incubated with 25 μg of DQ substrate with or without various concentrations of inhibitor in a total volume of 100 μl at 37° C. for 30 minutes. The fluorescence was determined using excitation and emission wavelengths of 360 nm and 460 nm, respectively. The potency of inhibitors (IC50) was determined from a dose-response curve. Experiments were performed in triplicate.

A further assay deals with H.AMCase (human AMCase) (Homo sapiens, UniProt Q9BZP6). The assay is described as follows: Further inhibition studies, human AMCase (Table 2). The assay is classed as biochemical. The text has this:
(§2) Inhibition Studies on Human and Mouse AMCase and Chitotriosidase

A further assay has as its target M.AMCase (mouse AMCase) (Mus musculus, UniProt Q91XA9). As to the kind of experiment: Further inhibition studies, mouse AMCase (Table 2). It is filed as biochemical.
From the text: as §2

Assay [4] has as its target M.Chito (mouse chitotriosidase) (Mus musculus, UniProt Q9D7Q1). The assay is described as follows: Further inhibition studies, mouse chitotriosidase (Table 2). It is filed as biochemical.
From the text: as §2

Assay [5] deals with T1, AfChiB1. The assay is described as follows: AfChiB1 binding (Kd).
For another assay, the target named is T3, human chitotriosidase (Homo sapiens, UniProt Q13231).
T3 construct: made in house; host or cells: HEK 293 (transient transfection, supernatant)
As to the kind of experiment: Human chitotriosidase inhibition, 4MU-GlcNAc2 chitinase assay. It is filed as biochemical. Particulars: 22 μM substrate, 1 nM enzyme, 30° C. for 30 minutes; read-out: hCHT IC50.

A further assay addresses T4, human AMCase (Homo sapiens, UniProt Q9BZP6).
T4 construct: made in house; host or cells: HEK 293 (transient transfection, supernatant)
The assay is described as follows: Human AMCase inhibition, 4MU-GlcNAc2 chitinase assay. The assay is classed as biochemical. Particulars: 1 mM inhibitor.

Assay [6] has as its target H.Chito (human chitotriosidase) (Homo sapiens, UniProt Q13231). The assay is described as follows: Further inhibition studies, human chitotriosidase (Table 2). It is filed as biochemical.
From the text: as §2

For assay [7], the target named is Phosphodiesterase 4A (PDE4A) (Homo sapiens, UniProt P27815). Particulars: PDE-SPA assay, result in words.
Description: The assay reaction contained 100 nM [^3H]cAMP (1 μCi/ml) in a buffer containing 20 mM HEPES (pH 7.5), 10 mM MgCl2, 100 mM EDTA, 100 mM KCl and 2 μl of test compound in DMSO at 30° C. The reaction was initiated by addition of enzyme for 10 min. The potency of inhibitors (IC50) was determined from a dose-response curve. Experiments were performed with n=6.
Where [8] appears, read: Table 5, N3 compounds, against AfChiB, read-out: IC50.
Setting [9] is: Table 6, N7 compounds, against AfChiB, read-out: IC50.
Setting [10] is: 2 nM enzyme, 20 μM substrate, pH 5.5, 10 min at 37° C., read-out: AfChiB1 IC50.
[11] abbreviates: Trio substrate, pH 5.2, read-out: H.Chito Trio pH 5.2 (IC50).
Setting [12] is: human AMCase, Bio substrate, pH 4.5, read-out: H.AMCase Bio pH 4.5 (IC50).
Setting [13] is: mouse AMCase, Bio substrate, pH 4.5, read-out: M.AMCase Bio pH 4.5 (IC50).
[14] abbreviates: mouse chitotriosidase, Bio substrate, pH 5.2, read-out: M.Chito Bio pH 5.2 (IC50).

Chain of M.Chito (mouse chitotriosidase) (Q9D7Q1 22-464): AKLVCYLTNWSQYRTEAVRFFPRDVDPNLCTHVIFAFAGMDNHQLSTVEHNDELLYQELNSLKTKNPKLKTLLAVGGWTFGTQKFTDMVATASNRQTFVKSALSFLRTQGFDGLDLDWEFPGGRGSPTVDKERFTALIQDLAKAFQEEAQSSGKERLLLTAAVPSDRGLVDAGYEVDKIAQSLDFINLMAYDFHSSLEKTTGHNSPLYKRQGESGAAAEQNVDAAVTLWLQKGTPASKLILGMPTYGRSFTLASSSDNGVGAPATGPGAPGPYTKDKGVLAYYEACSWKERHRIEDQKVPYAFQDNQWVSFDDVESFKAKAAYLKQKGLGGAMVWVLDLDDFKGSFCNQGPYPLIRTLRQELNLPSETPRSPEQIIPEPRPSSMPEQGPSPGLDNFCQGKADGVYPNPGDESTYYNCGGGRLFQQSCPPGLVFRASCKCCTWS
T2 sequence (P00698 19-147): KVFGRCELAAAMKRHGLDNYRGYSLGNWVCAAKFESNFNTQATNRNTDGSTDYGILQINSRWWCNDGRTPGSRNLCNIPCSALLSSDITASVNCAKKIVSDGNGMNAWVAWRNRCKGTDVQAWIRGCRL
Chain of H.Chito (human chitotriosidase) (Q13231 22-466): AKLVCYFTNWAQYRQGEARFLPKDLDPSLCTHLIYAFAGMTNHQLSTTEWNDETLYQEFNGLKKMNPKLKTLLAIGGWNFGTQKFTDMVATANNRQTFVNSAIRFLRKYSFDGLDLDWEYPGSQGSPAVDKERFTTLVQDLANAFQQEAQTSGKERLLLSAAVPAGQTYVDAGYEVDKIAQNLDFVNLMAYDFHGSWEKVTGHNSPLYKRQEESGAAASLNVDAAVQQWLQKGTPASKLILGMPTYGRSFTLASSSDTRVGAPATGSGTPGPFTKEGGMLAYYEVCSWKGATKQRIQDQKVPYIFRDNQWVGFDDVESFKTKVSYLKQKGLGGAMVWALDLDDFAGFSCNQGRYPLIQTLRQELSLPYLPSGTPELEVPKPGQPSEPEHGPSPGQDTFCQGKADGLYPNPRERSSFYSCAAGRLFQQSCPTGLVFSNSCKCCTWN
Chain of H.AMCase (human AMCase) (Q9BZP6 22-476): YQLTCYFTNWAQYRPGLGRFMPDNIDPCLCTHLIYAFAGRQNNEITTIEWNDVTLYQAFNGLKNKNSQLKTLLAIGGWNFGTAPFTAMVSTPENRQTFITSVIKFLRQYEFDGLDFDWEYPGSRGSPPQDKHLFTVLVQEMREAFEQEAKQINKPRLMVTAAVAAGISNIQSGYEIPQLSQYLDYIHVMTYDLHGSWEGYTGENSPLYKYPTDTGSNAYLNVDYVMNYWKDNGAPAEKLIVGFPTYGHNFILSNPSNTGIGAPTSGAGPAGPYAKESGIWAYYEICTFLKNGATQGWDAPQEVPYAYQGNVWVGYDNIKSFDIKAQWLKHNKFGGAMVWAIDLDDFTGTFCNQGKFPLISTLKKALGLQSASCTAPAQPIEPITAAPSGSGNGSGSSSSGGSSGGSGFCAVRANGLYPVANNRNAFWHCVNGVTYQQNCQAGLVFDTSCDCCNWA
Chain of M.AMCase (mouse AMCase) (Q91XA9 22-473): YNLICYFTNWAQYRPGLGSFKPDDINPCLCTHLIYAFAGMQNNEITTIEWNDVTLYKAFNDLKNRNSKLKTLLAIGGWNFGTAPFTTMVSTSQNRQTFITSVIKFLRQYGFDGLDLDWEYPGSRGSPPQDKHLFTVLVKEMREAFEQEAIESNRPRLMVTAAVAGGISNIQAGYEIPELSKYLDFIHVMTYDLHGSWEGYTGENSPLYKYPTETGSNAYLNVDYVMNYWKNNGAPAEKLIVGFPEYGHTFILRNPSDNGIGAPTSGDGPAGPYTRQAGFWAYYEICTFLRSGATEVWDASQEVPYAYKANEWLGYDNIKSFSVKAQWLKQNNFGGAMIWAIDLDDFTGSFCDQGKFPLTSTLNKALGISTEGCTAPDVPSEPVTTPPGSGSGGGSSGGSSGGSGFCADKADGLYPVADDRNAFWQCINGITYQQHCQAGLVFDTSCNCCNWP
T3 sequence (Q13231 22-466): as the sequence (Q13231 22-466) above
T4 sequence (Q9BZP6 22-476): as the sequence (Q9BZP6 22-476) above
Chain of Phosphodiesterase 4A (PDE4A) (P27815 whole entry): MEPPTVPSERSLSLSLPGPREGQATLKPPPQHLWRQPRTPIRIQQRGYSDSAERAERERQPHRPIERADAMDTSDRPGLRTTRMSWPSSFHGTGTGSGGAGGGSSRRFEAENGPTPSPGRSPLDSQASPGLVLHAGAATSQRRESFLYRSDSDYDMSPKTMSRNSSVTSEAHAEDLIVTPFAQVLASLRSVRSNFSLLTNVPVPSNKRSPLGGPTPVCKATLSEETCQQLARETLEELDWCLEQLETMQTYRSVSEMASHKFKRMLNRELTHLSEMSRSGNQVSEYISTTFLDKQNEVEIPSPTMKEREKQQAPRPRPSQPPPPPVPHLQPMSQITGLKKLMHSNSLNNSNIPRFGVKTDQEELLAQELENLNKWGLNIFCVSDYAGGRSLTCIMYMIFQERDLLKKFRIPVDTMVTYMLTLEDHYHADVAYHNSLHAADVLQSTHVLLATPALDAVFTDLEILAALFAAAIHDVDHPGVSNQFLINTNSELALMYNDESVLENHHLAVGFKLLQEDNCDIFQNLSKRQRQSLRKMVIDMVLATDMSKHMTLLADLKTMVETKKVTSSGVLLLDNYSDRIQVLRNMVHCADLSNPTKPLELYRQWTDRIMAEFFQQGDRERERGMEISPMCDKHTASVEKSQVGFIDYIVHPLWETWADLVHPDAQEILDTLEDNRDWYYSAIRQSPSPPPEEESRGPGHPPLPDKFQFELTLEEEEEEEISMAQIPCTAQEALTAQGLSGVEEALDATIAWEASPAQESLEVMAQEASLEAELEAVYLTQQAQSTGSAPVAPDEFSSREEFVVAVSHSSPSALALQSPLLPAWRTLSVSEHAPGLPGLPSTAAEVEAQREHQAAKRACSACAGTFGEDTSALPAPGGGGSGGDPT

Take `Cn1cnc2c1c(=O)n(CCCn1c(=O)c3c(ncn3C)n(CCCN)c1=O)c(=O)n2C` [Compound 15]: the IC50 at AfChiB1 [1] (setting [8]) was 0.44 µM.

For the compound `CCn1c(=O)n(CCCn2c(=O)c3c(ncn3C)n(C)c2=O)c(=O)c2c1ncn2C` [Compound 10], at AfChiB1 [1] (setting [8]), the half-maximal inhibitory concentration (IC50) was 0.31 µM.

`C=CCn1c(=O)n(CCCn2c(=O)c3c(ncn3C)n(C)c2=O)c(=O)c2c1ncn2C` [Compound 11]: the IC50 at AfChiB1 [1] (setting [8]) came to 0.14 µM.

As for `Cn1cnc2[nH]c(=O)n(CCCn3c(=O)c4c(ncn4C)n(C)c3=O)c(=O)c21` [Compound 9], the IC50 on AfChiB1 [1] (setting [8]) worked out at 0.086 µM.

Turning to `COC(=O)C=CCn1cnc2c1c(=O)n(CCCn1c(=O)c3c(ncn3C)n(C)c1=O)c(=O)n2C` [Compound 24], the IC50 on AfChiB1 [1] (setting [9]) stood at 0.16 µM.

Turning to `CC(C)n1c(=O)n(CCCn2c(=O)c3c(ncn3C)n(C)c2=O)c(=O)c2c1ncn2C` [Compound 12], the IC50 at AfChiB1 [1] (setting [8]) worked out at 0.52 µM.

As to `Cn1cnc2c1c(=O)n(CCCn1c(=O)c3c(ncn3C)n(CCCO)c1=O)c(=O)n2C` [Compound 16], the IC50 at AfChiB1 [1] (setting [8]) is 0.44 µM.

In the case of `COC(=O)CCCCn1cnc2c1c(=O)n(CCCn1c(=O)c3c(ncn3C)n(C)c1=O)c(=O)n2C` [Compound 22], on AfChiB1 [1] (setting [9]), the IC50 is 0.3 µM.

Regarding `Cn1cnc2c1c(=O)n(CCCn1c(=O)c3c(ncn3CCCC(=O)O)n(C)c1=O)c(=O)n2C` [Compound 21], the half-inhibitory concentration (IC50) at AfChiB1 [1] (setting [9]) worked out at 0.2 µM.

`Cn1c(=O)c2[nH]cnc2n(C)c1=O` [theophylline]: the IC50 on AfChiB1 [1] (setting [10]) was 1500 µM; in assay [2], 1010 ± 159 µM; on H.AMCase (human AMCase) it was ~2000 µM; against M.AMCase (mouse AMCase), ~1600 µM; in assay [4], > 2000 µM. For the same compound, in assay [3], the “Egg white lysozyme activity at 500 μM” value was 100%.

In the case of `CC(=O)CCCCn1c(=O)c2c(ncn2C)n(C)c1=O` [pentoxifylline], the half-maximal inhibitory concentration (IC50) on AfChiB1 [1] (setting [10]) was 126 µM; at human chitotriosidase, 98 µM; in assay [2], 881 ± 319 µM; in assay [6] (setting [11]) it was 400 µM; at H.AMCase (human AMCase) (setting [12]), 400 µM; at M.AMCase (mouse AMCase) (setting [13]), 400 µM. Also, in assay [4] (setting [14]), the IC50 is ~1000 µM. The Ki on AfChiB1 [1] (competitive inhibitor, 5-30 μM substrate, fit to competitive inhibition equation) is 37 µM. In addition, at AfChiB1 [5], the affinity, expressed as Kd, was 43 ± 10 µM. In addition, at human AMCase, the “hAMCase activity at 1 mM” value is 49%. For the same compound, in [3], the “Egg white lysozyme activity at 500 μM” value is given as 100%. In addition, the “inhibition of human phosphodiesterase-4” value in assay [7] is “barely detectable”.

On to `Cn1cnc2c1c(=O)n(CCCn1c(=O)c3nc[nH]c3n(C)c1=O)c(=O)n2C` [Compound 17], for which, at AfChiB1 [1] (setting [9]), the IC50 worked out at 0.2 µM.

In the case of `Cn1cnc2c1c(=O)n(CCCn1c(=O)c3c(ncn3CCCCC(=O)O)n(C)c1=O)c(=O)n2C` [Compound 23], the IC50 at AfChiB1 [1] (setting [9]) was determined as 0.36 µM.

Consider `Cn1cnc2c1c(=O)n(CCCn1c(=O)c3c(ncn3C)n(CCN)c1=O)c(=O)n2C` [Compound 13], for which the IC50 on AfChiB1 [1] (setting [8]) was 0.078 µM.

With `COC(=O)CCCn1cnc2c1c(=O)n(CCCn1c(=O)c3c(ncn3C)n(C)c1=O)c(=O)n2C` [Compound 20], the IC50 on AfChiB1 [1] (setting [9]) was 0.14 µM.

Take `Cn1cnc2c1c(=O)n(CCCn1c(=O)c3c(ncn3CCC(=O)O)n(C)c1=O)c(=O)n2C` [Compound 19]: the IC50 at AfChiB1 [1] (setting [9]) amounted to 0.16 µM.

Consider `Cn1cnc2c1c(=O)n(CCCCn1c(=O)c3c(ncn3C)n(C)c1=O)c(=O)n2C` [Compound 3], for which the half-inhibitory concentration (IC50) at AfChiB1 [1] is 6 µM.

With `Cn1cnc2c1c(=O)n(CCn1c(=O)c3c(ncn3C)n(C)c1=O)c(=O)n2C` [Compound 1], the IC50 on AfChiB1 [1] was determined as 6 µM.

With `Cn1c(=O)c2c(ncn2C)n(C)c1=O` [caffeine], the IC50 stood at 257 ± 8 µM on human chitotriosidase; 1250 ± 278 µM in [2]; 650 µM in [6] (H.Chito Bio pH 5.2 (IC50), Bio substrate); 850 µM in [6] (setting [11]); 500 µM on H.AMCase (human AMCase) (setting [12]); 800 µM on M.AMCase (mouse AMCase) (setting [13]). In addition, the concentration for half-maximal inhibition (IC50) in assay [4] (setting [14]) is > 1000 µM. Moreover, the “hAMCase activity at 1 mM” value on human AMCase turned out to be 36%. The “Egg white lysozyme activity at 500 μM” value in assay [3] is 100%.

For `Cn1cnc2c1c(=O)n(CCCn1c(=O)c3c(ncn3C)n(C)c1=O)c(=O)n2C` [Compound 2], at AfChiB1 [1], the IC50 amounted to 0.23 µM.

In the case of `Cn1cnc2c1c(=O)n(CCCn1c(=O)c3c(ncn3CC=CC(=O)O)n(C)c1=O)c(=O)n2C` [Compound 25], on AfChiB1 [1] (setting [9]), the IC50 came out at 0.42 µM.

With `Cn1cnc2c1c(=O)n(CCCn1c(=O)c3c(ncn3C)n(CCO)c1=O)c(=O)n2C` [Compound 14], on AfChiB1 [1] (setting [8]), the IC50 came out at 0.18 µM.

By IC50 is commonly meant the concentration that gives 50% inhibition. As usually defined, the Ki is the dissociation constant of the complex between target and ligand, obtained from inhibition or displacement. What is called Kd is the free concentration of one partner at which half of the binding sites on the other are occupied at equilibrium, for simple one-to-one binding. A higher Kd goes with a looser complex.
